Measured values: PubChem BioAssay (NCI)
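Dose response: 5 concentrations. Exposure: 48 h. Format: 96-well plates. Endpoint: linear interpolation; highest concentration if not reached. TGI denotes the concentration required for complete inhibition of growth.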

Tests used:
Experiment in all cases: inhibition of tumour cell growth, NCI panel, 48 h
[1] = system: A498 renal
[2] = system: ACHN renal
[3] = system: BT-549 breast
[4] = system: CCRF-CEM leukemia
[5] = system: HCT-116 colon
[6] = system: MDA-N
[7] = system: NCI-H522 lung
[8] = system: NCI/ADR-RES ovarian
[9] = system: PC-3 prostate
[10] = system: U251 CNS
[11] = system: UACC-62 melanoma
[12] = system: SNB-19 CNS

Structure (SMILES)	TGI [1] [µM]	TGI [2] [µM]	TGI [3] [µM]	TGI [4] [µM]	TGI [5] [µM]	TGI [6] [µM]	TGI [7] [µM]	TGI [8] [µM]	TGI [9] [µM]	TGI [10] [µM]	TGI [11] [µM]	TGI [12] [µM]
Nc1nccc(NCC2(CO)CC(CCc3ccccc3)C2)n1 (centres undefined)	29.3	32.6	40.3	55.5	23	31.4	26	75.7	31.9	28.7	28.5	
CN(CC(=O)Nc1ccccc1C(=O)O)c1ccccc1	> 100	> 100	> 100	> 100	> 100	> 100	> 100		> 100	> 100		> 100
Cc1cc(C=O)c2c(=O)c3c(O)ccc(/C=C/C(C)C)c3oc2c1		> 100			48.1		74			> 100	> 100	> 100
CCOc1ccc(OP2(=O)NC(=O)C=C(C)N2)cc1 (centres undefined)	> 100	> 100		> 100	> 100		> 100			> 100	> 100	> 100
COC(=O)/C(=N\N)C(C(=O)C(=O)Nc1cc(Cl)ccc1Cl)c1nc2ccc([N+](=O)[O-])cc2[nH]c1=O (centres undefined)	> 100	> 100	> 100	> 100	> 100	> 100	> 100	> 100	> 100	> 100	> 100	
Fc1ccc2c(c1)SC1=Nc3sc4cc(F)ccc4[n+]3CN12	33.5	62.2	43.6		> 100		35.2	63.6	> 100	46.3	33.1	38.4
O=C(NC1CCCCC1)c1n[nH]nc1Cl	> 100	> 100	> 100	> 100	> 100			> 100	> 100	> 100	> 100	> 100
CCOC(=O)C1(C)CCC(C(=O)OC)C1=O (centres undefined)	> 100	> 100		57.7	> 100		31.7			> 100	> 100	> 100
CN1S(=O)(=O)N(C)P12(N=P(CP(=NP13(N(C)S(=O)(=O)N1C)N(C)S(=O)(=O)N3C)(c1ccccc1)c1ccccc1)(c1ccccc1)c1ccccc1)N(C)S(=O)(=O)N2C	> 100	> 100		> 100	> 100		> 100			> 100	> 100	> 100
O=C(c1c(F)c(F)c(F)c(F)c1F)n1c(=S)n(C(=O)c2c(F)c(F)c(F)c(F)c2F)c2ccccc21		> 100	> 100	49.9	> 100	> 100			> 100	> 100	> 100	> 100
CCCCCCC1OC23OC1CCC2C(O)CCC3O (centres undefined)	> 100	> 100	> 100		> 100		> 100	> 100	> 100	> 100	> 100	> 100
NC(Cc1cc(I)c(Oc2ccc(O)c(I)c2)c(I)c1)C(=O)O (centres undefined)	92.6	> 100	> 100		> 100	> 100	> 100	> 100	> 100	> 100	> 100	> 100
N#CCC(=O)N/N=C\C(O)C(O)C(O)C(O)CO (centres undefined)	> 100	> 100	> 100	> 100		> 100	> 100	> 100	> 100		> 100	> 100
COC(=O)C1(CCCCl)CCCN1C(=O)OC(C)(C)C (centres undefined)		> 100	> 100	> 100	> 100	> 100		> 100	> 100	> 100	> 100	> 100
C#CCN(C(=O)C(F)(F)F)C(/C=C\C(=O)OC)(C(=O)OCC)C(=O)OCC	> 100	> 100	> 100	> 100		> 100	> 100	> 100	> 100	> 100	> 100	> 100
COc1ccc(OC)c(/C=C2/C(=O)N=C(NC(C)=O)N2C)c1		> 100	> 100	> 100	> 100	> 100	> 100	> 100	> 100	> 100	> 100	> 100
O=C1/C(=C/c2ccc(Br)s2)NC(=S)N1CN1CCCCC1	91.7	> 100	96.8		> 100	> 100	83.1	98.2	88.3	> 100	> 100	> 100
COC(=O)C1CC2CC1C1C2SC(F)(F)C1(F)F (centres undefined)	> 100	> 100			> 100	> 100	> 100	> 100	> 100	> 100	> 100	> 100
O=C(O)c1ccccc1/C=C1\Cc2cc3c(cc2C1=O)CCC3	80.1	> 100	> 100	44.2	76.6	38.9	45.6	66.2		94.3	57.8	> 100
COc1cc(Nc2nc3cc(C)ccc3nc2-c2ccccc2)cc(OC)c1OC	> 100	> 100		> 100	45.2		90.6			> 100	63.6	> 100
Cc1[nH]c(=O)c2oc3cc4ccccc4cc3c2c1C(=O)O		> 10	> 10			> 10	> 10	> 10	> 10	> 10	> 10	> 10
COC(=O)/C=C1\C(CO[Si](C)(C)C(C)(C)C)OC(n2ccc(=O)[nH]c2=O)C1O (centres undefined)	41.6	> 65.5	> 80.5	26.1	16.9	> 66.4		38.4	> 27.9	> 87.3	54.1	> 100
